Measured values from paper PMC2860736 (Pharmacological research : the official journal of the …, 2010).
Like-named read-outs stand apart in the source and are kept apart here.

Tests used:
human COX-2 = biological target: T1, human COX-2 (Homo sapiens, UniProt P35354); assay: COX functional assay; format: biochemical; details: for Inhibition of COX-2 (%) Mean ± std. dev. (N=3): compound 10 μM; for inhibition at 10 µM: read-out: Inhibition of COX-2 (%) Mean ± std. dev. (N=3); for selectivity for COX-2 (COX-1 IC50 / COX-2 IC50): human COX-2 over COX-1; for COX-2 selectivity (IC50 COX-1 / IC50 COX-2): ratio of IC50 values
T1 sequence (P35354 18-604): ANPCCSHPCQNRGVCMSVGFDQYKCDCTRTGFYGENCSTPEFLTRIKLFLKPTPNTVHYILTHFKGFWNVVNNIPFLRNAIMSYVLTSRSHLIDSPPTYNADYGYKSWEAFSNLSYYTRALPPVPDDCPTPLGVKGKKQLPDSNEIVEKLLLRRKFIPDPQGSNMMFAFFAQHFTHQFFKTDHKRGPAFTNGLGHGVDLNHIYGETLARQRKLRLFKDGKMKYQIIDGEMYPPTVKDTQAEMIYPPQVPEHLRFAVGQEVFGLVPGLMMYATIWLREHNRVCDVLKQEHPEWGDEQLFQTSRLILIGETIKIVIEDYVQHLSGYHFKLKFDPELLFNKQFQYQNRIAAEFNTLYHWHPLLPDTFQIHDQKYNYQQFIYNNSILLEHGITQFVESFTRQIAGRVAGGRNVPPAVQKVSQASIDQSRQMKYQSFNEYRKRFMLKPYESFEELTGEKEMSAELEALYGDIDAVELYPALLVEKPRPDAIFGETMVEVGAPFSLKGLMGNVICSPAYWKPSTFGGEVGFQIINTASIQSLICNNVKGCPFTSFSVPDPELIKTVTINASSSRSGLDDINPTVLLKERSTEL

ovine COX-1 = biological target: T2, ovine COX-1 (Ovis aries, UniProt P05979); assay: COX functional assay; format: biochemical; details: for Inhibition of COX-1 (%) Mean ± std. dev. (N=3): compound 10 μM; for inhibition at 10 µM: read-out: Inhibition of COX-1 (%) Mean ± std. dev. (N=3)
T2 sequence (P05979 25-600): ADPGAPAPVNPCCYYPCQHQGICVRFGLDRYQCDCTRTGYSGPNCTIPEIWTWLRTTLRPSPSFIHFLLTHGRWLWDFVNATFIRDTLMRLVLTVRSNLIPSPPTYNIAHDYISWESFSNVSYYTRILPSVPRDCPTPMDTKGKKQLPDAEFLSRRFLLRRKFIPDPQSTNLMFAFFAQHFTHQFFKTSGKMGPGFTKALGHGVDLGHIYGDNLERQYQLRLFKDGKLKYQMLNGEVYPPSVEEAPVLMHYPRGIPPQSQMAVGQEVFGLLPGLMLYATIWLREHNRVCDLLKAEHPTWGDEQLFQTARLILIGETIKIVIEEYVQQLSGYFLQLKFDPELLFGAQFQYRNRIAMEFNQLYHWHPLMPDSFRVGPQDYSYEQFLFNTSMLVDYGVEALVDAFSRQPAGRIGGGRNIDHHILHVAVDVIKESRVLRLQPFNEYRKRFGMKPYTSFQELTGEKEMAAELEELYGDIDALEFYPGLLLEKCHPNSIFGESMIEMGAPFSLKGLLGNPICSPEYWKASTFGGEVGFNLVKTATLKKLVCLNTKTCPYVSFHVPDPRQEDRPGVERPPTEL

COX-1 [1] = details: read-out: IC50 COX-1; assay using human platelets; cited from earlier work
ovine COX-2 = assay: Pulsed ultrafiltration LC-MS screening for COX-2 ligands; format: binding; details: for binding to COX-2 (result in words): pulsed ultrafiltration LC-MS; for peak enhancement compared to the control chromatograms: standards screened as mixtures, 0.7 μg/mL each, control denatured COX-2
COX-1 [2] = details: read-out: IC50 COX-1; cited from earlier work
COX-2 = details: read-out: IC50 COX-2; cited from earlier work
[3] = read-out: IC50 COX-2, N=3, mean ± std. dev.
[4] = IC50 COX-2, N=3, mean ± std. dev.
[5] = IC50 COX-1, N=3, mean ± std. dev.
[6] = read-out: IC50 COX-1, N=3, mean ± std. dev.

CC(C)=CC(O)C/C(C)=C/COc1c2ccoc2cc2oc(=O)ccc12 (centres unmarked) [Notopterol]
inhibition of COX-2 in the functional assay (result in words) (human COX-2): did not inhibit
inhibition of COX-1 in the functional assay (result in words) (ovine COX-1): did not inhibit

CC(=O)O[C@@H]1CC[C@@]2(C)[C@@H](CC[C@]3(C)[C@@H]2C(=O)C=C2[C@@H]4[C@@H](C)[C@H](C)CC[C@]4(C)CC[C@]23C)[C@@]1(C)C(=O)O [Acetyl-11-keto-β-boswellic acid]
Inhibition of COX-2 (%) Mean ± std. dev. (N=3) (human COX-2): 23 ± 15%
IC50 (human COX-2; [3]): 85 ± 20 µM
IC50 (human COX-2; read-out: IC50 COX-2, N=3, mean ± std. dev., listed as acetyl-11-keto-β-boswellic acid): ≥ 73 µM
IC50 (COX-1 [1]): 6 µM
Inhibition of COX-1 (%) Mean ± std. dev. (N=3) (ovine COX-1): 39 ± 5%

C[C@H]1[C@H](C)CC[C@]2(C)CC[C@]3(C)C(=CC[C@@H]4[C@@]5(C)CC[C@@H](O)[C@](C)(C(=O)O)[C@@H]5CC[C@]43C)[C@H]12 [β-Boswellic acid]
IC50 (human COX-2; [4]): > 100 µM
inhibition at 10 µM (human COX-2): 17 ± 15%
inhibition at 10 µM (ovine COX-1): 42 ± 15%

CC1(C)[C@@H](O)CC[C@]2(C)[C@H]3C(=O)C=C4[C@@H]5C[C@@](C)(C(=O)O)CC[C@]5(C)CC[C@@]4(C)[C@]3(C)CC[C@@H]12 [Glycyrrhetic acid]
inhibition of COX-2 in the functional assay (result in words) (human COX-2): did not inhibit
inhibition of COX-1 in the functional assay (result in words) (ovine COX-1): did not inhibit

CC(=O)O[C@@H]1CC[C@@]2(C)[C@@H](CC[C@]3(C)[C@@H]2CC=C2[C@@H]4CC(C)(C)CC[C@]4(C)CC[C@]23C)[C@@]1(C)C(=O)O [Acetyl-α-boswellic acid]
Inhibition of COX-2 (%) Mean ± std. dev. (N=3) (human COX-2): 19 ± 5%
IC50 (human COX-2; [3]): > 100 µM
IC50 (human COX-2; read-out: IC50 COX-2, N=3, mean ± std. dev., listed as acetyl-α-boswellic acid): ≥ 73 µM
Inhibition of COX-1 (%) Mean ± std. dev. (N=3) (ovine COX-1): 74 ± 3%

O=C1C[C@@H](c2ccc(O)cc2)Oc2cc(O)ccc21 [Liquiritigenin]
binding to COX-2 (result in words) (ovine COX-2): did not show sufficient binding to COX-2

COc1ccc(-c2cc(=O)c3c(O)cc(O)cc3o2)cc1 [Linarigenin]
inhibition of COX-2 in the functional assay (result in words) (human COX-2): did not inhibit
inhibition of COX-1 in the functional assay (result in words) (ovine COX-1): did not inhibit

O=C(/C=C/c1ccc(O)cc1)c1ccc(O)cc1O [Isoliquiritigenin]
inhibition at 10 µM (human COX-2): 23 ± 3%
peak enhancement compared to the control chromatograms (ovine COX-2): ≥ 40%

Oc1ccc(/C=C/c2cc(O)cc(O)c2)cc1 [Resveratrol, reference compound]
IC50 (ovine COX-1; [5]): 0.86 ± 0.1 µM
inhibition at 10 µM (ovine COX-1): 86 ± 7%
IC50 (COX-1 [2]): 0.83 ± 0.44 µM
IC50 (COX-2): 0.99 ± 0.4 µM

CC(C)=CCOc1c2ccoc2cc2oc(=O)ccc12 [Isoimperatorin]
inhibition of COX-2 in the functional assay (result in words) (human COX-2): did not inhibit
inhibition of COX-1 in the functional assay (result in words) (ovine COX-1): did not inhibit

CC[C@H](CC[C@@H](C)[C@H]1CC[C@H]2[C@@H]3CC=C4C[C@@H](O)CC[C@]4(C)[C@H]3CC[C@]12C)C(C)C [β-Sitosterol]
inhibition of COX-2 in the functional assay (result in words) (human COX-2): did not inhibit
inhibition of COX-1 in the functional assay (result in words) (ovine COX-1): did not inhibit

CCC/C=C1\OC(=O)C2=C1CC[C@H]1[C@H]3C=C4C(=O)O/C(=C\CCC)[C@@]4(CC3)[C@@H]21 [Senkyunolide O]
Inhibition of COX-2 (%) Mean ± std. dev. (N=3) (human COX-2): 52 ± 20%
selectivity for COX-2 (COX-1 IC50 / COX-2 IC50) (human COX-2): ≥ 5 fold
COX-2 selectivity (IC50 COX-1 / IC50 COX-2) (human COX-2): 5.00
IC50 (human COX-2; [3]): 5 ± 5 µM
Inhibition of COX-1 (%) Mean ± std. dev. (N=3) (ovine COX-1): 0 ± 5%
IC50 (ovine COX-1; [6]): 25 ± 10 µM
binding to COX-2 (result in words) (ovine COX-2): determined to be COX-2 ligands

CC(C)=CCC/C(C)=C/Cc1cc2ccc(=O)oc2cc1O [Ostruthin]
inhibition of COX-2 in the functional assay (result in words) (human COX-2): did not inhibit
inhibition of COX-1 in the functional assay (result in words) (ovine COX-1): did not inhibit

C[C@H]1COC2=C1C(=O)C(=O)c1c2ccc2c1CCCC2(C)C [Cryptotanshinone]
IC50 (human COX-2; [4]): 22 ± 10 µM
selectivity for COX-2 (COX-1 IC50 / COX-2 IC50) (human COX-2): ≥ 5 fold
COX-2 selectivity (IC50 COX-1 / IC50 COX-2) (human COX-2): COX-2 specific
inhibition at 10 µM (human COX-2): 31 ± 20%
IC50 (ovine COX-1; [5]): > 100 µM
inhibition at 10 µM (ovine COX-1): 0%
binding to COX-2 (result in words) (ovine COX-2): determined to be COX-2 ligands

C=C(C)[C@@H]1CC[C@]2(C(=O)O)CC[C@]3(C)[C@H](CC[C@@H]4[C@@]5(C)CC[C@H](O)C(C)(C)[C@@H]5CC[C@]43C)[C@@H]12 [Betulinic acid]
inhibition of COX-2 in the functional assay (result in words) (human COX-2): almost no inhibition of COX-2
IC50 (human COX-2; [4]): > 100 µM
COX-2 selectivity (IC50 COX-1 / IC50 COX-2) (human COX-2): COX-1 specific
inhibition at 10 µM (human COX-2): 33 ± 5%
IC50 (ovine COX-1; [5]): 20 ± 3 µM
inhibition at 10 µM (ovine COX-1): 32 ± 5%

CC1(C)CC[C@]2(C)CC[C@]3(C)C(=CC[C@@H]4[C@@]5(C)CC[C@@H](O)[C@](C)(C(=O)O)[C@@H]5CC[C@]43C)[C@@H]2C1 [α-Boswellic acid]
inhibition of COX-2 in the functional assay (result in words) (human COX-2): did not inhibit
inhibition of COX-1 in the functional assay (result in words) (ovine COX-1): did not inhibit

CC(=O)O[C@@H]1CC[C@@]2(C)[C@@H](CC[C@]3(C)[C@@H]2CC=C2[C@@H]4[C@@H](C)[C@H](C)CC[C@]4(C)CC[C@]23C)[C@@]1(C)C(=O)O [Acetyl-β-boswellic acid]
Inhibition of COX-2 (%) Mean ± std. dev. (N=3) (human COX-2): 25 ± 6%
IC50 (human COX-2; [3]): 73 ± 20 µM
IC50 (human COX-2; read-out: IC50 COX-2, N=3, mean ± std. dev., listed as acetyl-β-boswellic acid): ≥ 73 µM
Inhibition of COX-1 (%) Mean ± std. dev. (N=3) (ovine COX-1): 31 ± 10%

C=C(C)[C@@H]1CC[C@]2(C)[C@H](CC=C3[C@@H]4[C@@H](C)[C@H](C)CC[C@]4(C)CC[C@]32C)[C@@]1(C)CCC(=O)O [Roburic acid]
Inhibition of COX-2 (%) Mean ± std. dev. (N=3) (human COX-2): 45 ± 5%
IC50 (human COX-2; [3]): 9 ± 3 µM
Inhibition of COX-1 (%) Mean ± std. dev. (N=3) (ovine COX-1): 33 ± 8%
IC50 (ovine COX-1; [6]): 5 ± 2 µM

COc1cc(/C=C/C(=O)OCCc2ccccc2)ccc1O [Phenethyl trans-ferulate]
Inhibition of COX-2 (%) Mean ± std. dev. (N=3) (human COX-2): 25 ± 10%
COX-2 selectivity (IC50 COX-1 / IC50 COX-2) (human COX-2): 0.58
COX-2 selectivity (IC50 COX-1 / IC50 COX-2) (human COX-2; listed as phenethyl-trans-ferulate): inhibited COX-1 and COX-2 equally
IC50 (human COX-2; [3]): 31 ± 15 µM
Inhibition of COX-1 (%) Mean ± std. dev. (N=3) (ovine COX-1): 44 ± 3%
IC50 (ovine COX-1; [6]): 18 ± 5 µM
peak enhancement compared to the control chromatograms (ovine COX-2): ≥ 40%
